Laboratory results published in ChEMBL document CHEMBL4340519, “The effects of Arctigenin-Valine ester on chemotherapy-induced myelosuppression in mice” (Bioorg Med Chem, 2019).
The source made the active and inactive calls. No cut-off for these calls is given here.

Assays:
[1] = Toxicity in BALB/c mouse assessed as effect on appearance of shiny hair at 5 to 10 mg/kg, ip administered daily for 7 days measured during compound dosing; assay type: organism-based; settings: in vivo, 168 h
Mus musculus [2] = assay: (§1) Protection against CTX-induced myelosuppression in BALB/c mouse assessed as change in hematopoietic progenitor cell cycle distribution by increase in accumulation at G2/M-phase at 5 to 10 mg/kg, ip administered daily for 7 days starting from 3 days post-CTX challenge measured 24 hrs post-last dose by propidium iodide staining based flow cytometry; assay type: functional, organism-based
Mus musculus [3] = assay: Protection against CTX-induced myelosuppression in BALB/c mouse assessed as effect on HGB level at 5 mg/kg, ip administered daily for 7 days starting from 3 days post-CTX challenge measured 24 hrs post-last dose (reference value: 113.2 +/- 6.66 g/L); assay type: functional
Mus musculus [4] = assay: Protection against CTX-induced myelosuppression in BALB/c mouse assessed as effect on PLT level at 10 mg/kg, ip administered daily for 7 days starting from 3 days post-CTX challenge measured 24 hrs post-last dose (reference value: 628.5 +/- 66.09 10^9/L); assay type: functional
[5] = Toxicity in BALB/c mouse assessed as change in body temperature at 5 to 10 mg/kg, ip administered daily for 7 days measured during compound dosing; assay type: organism-based; settings: in vivo, 168 h
Mus musculus [6] = assay: Protection against CTX-induced myelosuppression in BALB/c mouse assessed as effect on RBC level at 10 mg/kg, ip administered daily for 7 days starting from 3 days post-CTX challenge measured 24 hrs post-last dose (reference value: 8.63 +/- 0.68 10^12/L); assay type: functional
Mus musculus [7] = assay: Protection against CTX-induced toxicity in BALB/c mouse assessed as restoration of normal food intake at 5 to 10 mg/kg, ip administered daily for 7 days starting from 3 days post-CTX challenge and measured during compound dosing; assay type: functional, organism-based
Mus musculus [8] = assay: (§2) Protection against CTX-induced myelosuppression in BALB/c mouse assessed as improvement in hematopoiesis by decrease in thrombopoietin level at 5 to 10 mg/kg, ip administered daily for 7 days starting from 3 days post-CTX challenge measured 24 hrs post-last dose by ELISA; assay type: functional, organism-based
[9] = Toxicity in BALB/c mouse assessed as behavioral changes at 5 to 10 mg/kg, ip administered daily for 7 days measured during compound dosing; assay type: organism-based; settings: in vivo, 168 h
Mus musculus [10] = assay: Protection against CTX-induced myelosuppression in BALB/c mouse assessed as effect on WBC level at 10 mg/kg, ip administered daily for 7 days starting from 3 days post-CTX challenge measured 24 hrs post-last dose (reference value: 10.34 +/- 1.4 10^9/L); assay type: functional
Mus musculus [11] = assay: as §2, with “measuring increase” for “decrease”, “colonies of megakaryocytes” for “thrombopoietin level”, “inverted microscopic method” for “ELISA”; assay type: functional, organism-based
Mus musculus [12] = assay: as §2, with “measuring increase” for “decrease”, “burst forming units of erythroid” for “thrombopoietin level”, “inverted microscopic method” for “ELISA”; assay type: functional, organism-based
Mus musculus [13] = assay: Protection against CTX-induced toxicity in BALB/c mouse assessed as loss of hematuria at 5 to 10 mg/kg, ip administered daily for 7 days starting from 3 days post-CTX challenge and measured during compound dosing; assay type: functional, organism-based
Mus musculus [14] = assay: as §2, with “granulocyte macrophage-colony stimulating factor” for “thrombopoietin”; assay type: functional, organism-based
Mus musculus [15] = assay: Protection against CTX-induced toxicity in BALB/c mouse assessed as loss of diarrhea at 5 to 10 mg/kg, ip administered daily for 7 days starting from 3 days post-CTX challenge and measured during compound dosing; assay type: functional, organism-based
Mus musculus [16] = assay: Protection against CTX-induced myelosuppression in BALB/c mouse assessed as effect on WBC level at 5 mg/kg, ip administered daily for 7 days starting from 3 days post-CTX challenge measured 24 hrs post-last dose (reference value: 10.34 +/- 1.4 10^9/L); assay type: functional
Mus musculus [17] = assay: as §1, with “S-phase” for “G2/M-phase”; assay type: functional, organism-based
Mus musculus [18] = assay: Protection against CTX-induced toxicity in BALB/c mouse assessed as loss of cool skin at 5 to 10 mg/kg, ip administered daily for 7 days starting from 3 days post-CTX challenge and measured during compound dosing; assay type: functional, organism-based
Mus musculus [19] = assay: Protection against CTX-induced myelosuppression in BALB/c mouse assessed as effect on PLT level at 5 mg/kg, ip administered daily for 7 days starting from 3 days post-CTX challenge measured 24 hrs post-last dose (reference value: 628.5 +/- 66.09 10^9/L); assay type: functional
Mus musculus [20] = assay: as §1, with “decrease” for “increase”, “G0/G1-phase” for “G2/M-phase”; assay type: functional, organism-based
Mus musculus [21] = assay: as §2, with “measuring increase” for “decrease”, “bone marrow nucleated cells” for “thrombopoietin level”, “inverted microscopic method” for “ELISA”; assay type: functional, organism-based
Mus musculus [22] = assay: Protection against CTX-induced toxicity in BALB/c mouse assessed as restoration of normal body weight at 5 to 10 mg/kg, ip administered daily for 7 days starting from 3 days post-CTX challenge and measured during compound dosing; assay type: functional, organism-based
Mus musculus [23] = assay: Protection against CTX-induced myelosuppression in BALB/c mouse assessed as improvement in immunity by measuring spleen index at 10 mg/kg, ip administered daily for 7 days starting from 3 days post-CTX challenge measured 24 hrs post-last dose (reference value: 8.94 +/- […]); assay type: functional
Mus musculus [24] = assay: Protection against CTX-induced myelosuppression in BALB/c mouse assessed as effect on RBC level at 5 mg/kg, ip administered daily for 7 days starting from 3 days post-CTX challenge measured 24 hrs post-last dose (reference value: 8.63 +/- 0.68 10^12/L); assay type: functional
[25] = Toxicity in BALB/c mouse assessed as change in appetite at 5 to 10 mg/kg, ip administered daily for 7 days measured during compound dosing; assay type: organism-based; settings: in vivo, 168 h
Mus musculus [26] = assay: Protection against CTX-induced myelosuppression in BALB/c mouse assessed as effect on HGB level at 10 mg/kg, ip administered daily for 7 days starting from 3 days post-CTX challenge measured 24 hrs post-last dose (reference value: 113.2 +/- 6.66 g/L); assay type: functional
Mus musculus [27] = assay: Protection against CTX-induced myelosuppression in BALB/c mouse assessed as improvement in immunity by measuring spleen index at 5 mg/kg, ip administered daily for 7 days starting from 3 days post-CTX challenge measured 24 hrs post-last dose (reference value: 8.94 +/- […]); assay type: functional
Mus musculus [28] = assay: as §2, with “measuring increase” for “decrease”, “colonies of erythroid” for “thrombopoietin level”, “inverted microscopic method” for “ELISA”; assay type: functional, organism-based
Mus musculus [29] = assay: Protection against CTX-induced toxicity in BALB/c mouse assessed as loss of depilation at 5 to 10 mg/kg, ip administered daily for 7 days starting from 3 days post-CTX challenge and measured during compound dosing; assay type: functional, organism-based
Mus musculus [30] = assay: as §2, with “measuring increase” for “decrease”, “colonies of granulocyte macrophage” for “thrombopoietin level”, “inverted microscopic method” for “ELISA”; assay type: functional, organism-based
Mus musculus [31] = assay: Protection against CTX-induced myelosuppression in BALB/c mouse assessed as improvement in hematopoiesis by decrease in erythropoietin level at 5 to 10 mg/kg, ip administered daily for 7 days starting from 3 days post-CTX challenge measured 24 hrs post-last dose by ELISA; assay type: functional, organism-based
Mus musculus [32] = assay: Protection against CTX-induced myelosuppression in BALB/c mouse assessed as upregulation of phosphorylated ERK expression at 5 to 10 mg/kg, ip administered daily for 7 days starting from 3 days post-CTX challenge measured 24 hrs post-last dose by Western blot analysis; assay type: functional, organism-based
Mus musculus [33] = assay: Protection against CTX-induced myelosuppression in BALB/c mouse assessed as upregulation of MEK expression at 5 to 10 mg/kg, ip administered daily for 7 days starting from 3 days post-CTX challenge measured 24 hrs post-last dose by Western blot analysis; assay type: functional, organism-based

SMILES: COc1ccc(C[C@H]2COC(=O)[C@@H]2Cc2ccc(OC(=O)[C@@H](N)C(C)C)c(OC)c2)cc1OC
- Activity [1]: Non-Toxic
- Activity (Mus musculus [2]): Active
- Activity (Mus musculus [3]): 120 g/L
- Activity (Mus musculus [4]): 848 ×10⁹ /L
- Activity [5]: Non-Toxic
- Activity (Mus musculus [6]): 9.24 ×10¹² /L
- Activity (Mus musculus [7]): Active
- Activity (Mus musculus [8]): Active
- Activity [9]: Non-Toxic
- Activity (Mus musculus [10]): 8.65 ×10⁹ /L
- Activity (Mus musculus [11]): Active
- Activity (Mus musculus [12]): Active
- Activity (Mus musculus [13]): Active
- Activity (Mus musculus [14]): Active
- Activity (Mus musculus [15]): Active
- Activity (Mus musculus [16]): 9.29 ×10⁹ /L
- Activity (Mus musculus [17]): Active
- Activity (Mus musculus [18]): Active
- Activity (Mus musculus [19]): 796 ×10⁹ /L
- Activity (Mus musculus [20]): Active
- Activity (Mus musculus [21]): Active
- Activity (Mus musculus [22]): Active
- Activity index (Mus musculus [23]): 8.47 mg/g
- Activity (Mus musculus [24]): 8.8 ×10¹² /L
- Activity [25]: Non-Toxic
- Activity (Mus musculus [26]): 125.5 g/L
- Activity index (Mus musculus [27]): 8.66 mg/g
- Activity (Mus musculus [28]): Active
- Activity (Mus musculus [29]): Active
- Activity (Mus musculus [30]): Active
- Activity (Mus musculus [31]): Active
- Activity (Mus musculus [32]): Active
- Activity (Mus musculus [33]): Active
